The values below come from paper PMC5974090, “A fluorescence anisotropy assay to discover and characterize ligands targeting the maytansine site of tubulin” (Nature Communications, 2018).

Where two headings read alike, the source gives them in different places.

Details of assay [1]: method as in Panda et al., Proc Natl Acad Sci USA 95, 9313 (1998). Particulars: ref Panda et al., Proc Natl Acad Sci USA 95, 9313 (1998); cited from earlier work.
Assay [2] has as its target T1, tubulin (Bos taurus, UniProt Q6B856). Also noted: method as in Panda et al., Proc Natl Acad Sci USA 95, 9313 (1998). The settings on record: exact binding site on tubulin unknown; ref Panda et al., Proc Natl Acad Sci USA 95, 9313 (1998); cited from earlier work.
Assay [3] has as its target T1, tubulin. As to the kind of experiment: Fluorescence anisotropy titration of FcMaytansine with tubulin (direct binding). Particulars: 25 °C. On the procedure: The binding constant of the fluorescent FcMaytansine probe to tubulin was determined by fluorescence anisotropy titration at 25 °C in black Greiner 384-well, flat-bottom microplates and in a final volume of 50 µL. 10 nM FcMaytansine in assay buffer (15 mM PIPES-KOH, pH 6.8, supplemented with 0.3 mM MgCl2 and 0.2 mM EDTA) was titrated with increasing amounts of tubulin up to 400 nM. The anisotropy and fluorescence values of the free (r = 0.016 ± 0.001, fluorescence = 1 (arbitrary units)) and bound (r = 0.245 ± 0.005, fluorescence = 3.10 ± 0.05 (arbitrary units)) states were determined in the absence and presence of 400 nM tubulin, respectively. The anisotropy was measured using a PHERAstar microplate reader (BMG Labtech) with the fluorescence polarization module. […] The read height and the gain were adjusted automatically. […]
In order to calculate the binding constant of FcMaytansine and one of a non-fluorescent ligand from a competition experiment, the fractional saturation, νb, of FcMaytansine has to be determined. Binding of FcMaytansine to tubulin was measured through changes in its anisotropy. […]
In the simplest case of a fluorescent probe with no quantum yield difference between the bound and the free state, the fraction of bound (νb) and free (νf) fluorophore coincides with the fluorescence fractions for the bound and free fluorophore (Fb and Ff, respectively). […]
On the technique in general: Polarisation of emitted light reports the rotation of a fluorescent probe.

Another assay deals with cells. Also on record: method as in PMID 25826705. The settings on record: in vitro cytotoxicity, compound added exogenously; cited from earlier work.
Assay [4] addresses maytansine site of tubulin (Bos taurus, UniProt Q6B856). The format is binding. The settings on record: for Kd: 25 °C, mean ± SEM, n = 3, read-out: Kd from FcMaytansine displacement. The protocol:
Vinblastine and colchicine were used as negative controls. […] The mixture was then incubated with an unlabeled competitor at increasing concentrations prior to anisotropy measurements.
Fluorescence anisotropy competition experiments and analyses were performed as previously described[34] with minor modifications. Samples containing 10 nM FcMaytansine and 4 nM tubulin in assay buffer were titrated with increasing amounts of a competitor at 25 °C in black Greiner 384-well, flat-bottom microplates and in a final volume of 50 µL. Fluorescence anisotropy measurements were carried out as described above.
The system was solved using EQUIGRA5[34] using the binding constant of FcMaytansine and a stoichiometry of 1:1 for the tubulin–FcMaytansine complex (EQUIGRA5 can be obtained upon request from Fernando Díaz, fer@cib.csic.es).

In assay [5] the target is T1, tubulin. Also on record: method as in PMID 20937594. Particulars: reported previously; buffer with 100 mM PIPES; read-out: Kd for the tubulin-maytansine interaction; cited from earlier work.
In another assay the test system is human cancer cell lines. Also on record: method as in Xu et al. 2011; Rothmeier et al. 2010; Paterson et al. 2003. Particulars: large panel of human cancer cell lines; ref Xu et al. 2011; Rothmeier et al. 2010; Paterson et al. 2003; cited from earlier work.
In another assay the test system is mouse xenograft models. Also on record: method as in Xu et al. 2011; Rothmeier et al. 2010; Paterson et al. 2003. Particulars: ref Xu et al. 2011, Rothmeier et al. 2010, Paterson et al. 2003; cited from earlier work.
The mark [6] stands for this setting: 10 nM FcMaytansine, 4 nM tubulin.
The mark [7] stands for this setting: 10 nM FcMaytansine, 4 nM tubulin, increasing competitor concentrations.

Sequence of maytansine site of tubulin (P81947 whole entry): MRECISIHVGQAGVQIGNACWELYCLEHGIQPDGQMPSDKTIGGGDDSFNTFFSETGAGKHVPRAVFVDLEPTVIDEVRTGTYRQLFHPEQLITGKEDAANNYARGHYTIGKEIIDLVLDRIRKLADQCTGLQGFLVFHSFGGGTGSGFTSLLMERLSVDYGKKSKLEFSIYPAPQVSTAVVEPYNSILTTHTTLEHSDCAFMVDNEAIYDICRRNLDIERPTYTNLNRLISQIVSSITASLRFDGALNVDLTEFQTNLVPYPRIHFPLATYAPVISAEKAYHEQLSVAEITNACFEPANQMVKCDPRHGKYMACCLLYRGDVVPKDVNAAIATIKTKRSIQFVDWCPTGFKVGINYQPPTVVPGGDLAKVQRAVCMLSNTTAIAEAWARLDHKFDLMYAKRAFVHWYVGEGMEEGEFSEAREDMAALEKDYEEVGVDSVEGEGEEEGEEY
Sequence of maytansine site of tubulin (Q6B856 whole entry): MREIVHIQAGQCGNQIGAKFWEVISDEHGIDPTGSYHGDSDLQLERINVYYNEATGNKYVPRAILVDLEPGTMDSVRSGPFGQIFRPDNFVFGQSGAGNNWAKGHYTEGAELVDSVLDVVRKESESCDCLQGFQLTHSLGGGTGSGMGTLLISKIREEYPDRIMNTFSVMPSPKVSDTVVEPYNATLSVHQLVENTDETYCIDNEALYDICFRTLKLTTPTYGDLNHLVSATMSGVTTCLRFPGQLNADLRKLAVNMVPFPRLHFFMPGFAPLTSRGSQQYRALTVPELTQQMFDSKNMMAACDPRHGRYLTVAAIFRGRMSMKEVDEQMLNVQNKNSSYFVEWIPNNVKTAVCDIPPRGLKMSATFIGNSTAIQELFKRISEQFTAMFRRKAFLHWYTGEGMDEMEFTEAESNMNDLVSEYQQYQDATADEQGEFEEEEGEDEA
T1 sequence (Q6B856 whole entry): as above
T1 sequence (P81947 whole entry partner): as the sequence (P81947 whole entry) above

By IC50 is commonly meant the concentration at which inhibition is half-maximal. A word on the Kd: it is the concentration at which binding is half-saturated. Regarding `COc1ccc(C[C@H]2NC(=O)/C=C/C[C@@H]([C@H](C)[C@H]3O[C@@H]3c3ccccc3)OC(=O)[C@H](CC(C)C)OC(=O)C(C)(C)CNC2=O)cc1Cl` [Cryptophycin 52], in assay [1], the half-maximal inhibitory concentration (IC50) is 0.02 nM. On tubulin [2], the Kd is 47 nM.

On to `COc1cc2cc(c1Cl)N(C)C(=O)CC(OC(=O)CCCCc1cn(CCCNC(=O)c3ccc(C(=O)O)c(-c4c5ccc(=O)cc-5oc5cc(O)ccc45)c3)nn1)C1(C)OC1C(C)C1CC(O)(NC(=O)O1)C(OC)C=CC=C(C)C2` (centres unmarked) [FcMaytansine], for which the Kd at tubulin [3] (10 nM FcMaytansine, tubulin 0 to 400 nM, single binding site model, mean ± SEM, n = 5, read-out: dissociation constant, Kd, for the tubulin-FcMaytansine interaction) came out at 6.8 ± 0.8 nM. Moreover, the “binding constant of FcMaytansine to tubulin” value on tubulin [3] (stoichiometry 1:1, association constant) is recorded as 1.6 ± 0.3 × 10^8 M^−1.

Regarding `COc1cc2cc(c1Cl)N(C)C(=O)CC(OC(=O)C(C)N(C)C(=O)CCSC1CC(=O)N(CC3CCC(C(=O)NCCCCC(N)C(=O)O)CC3)C1=O)C1(C)OC1C(C)C1CC(O)(NC(=O)O1)C(OC)C=CC=C(C)C2` (centres unmarked) [M9], in the assay on cells, the “fold less potent in cellular assays than S-Me DM1” value was ~ 450 fold.

`C/C=C\C[C@@H](C/C=C\NC(=O)[C@@H](NC(=O)\C=C/C=C\C(C)=C\[C@H](C)[C@@H]1CC=C(OC)C(=O)O1)C(C)(C)C)OC(N)=O` [PM060184]: in assay [4] (setting [6]), the Kd was 111 ± 30 nM. Further, the “displacement of FcMaytansine from tubulin” value (“displacement of FcMaytansine” for short) in assay [4] (setting [7]) is on record as “fully displaced”.

For the compound `C/C=C/[C@H](O)C(C)(C(=O)OC)[C@@H]1C\C=C/C=C/C=C/c2nc(co2)C(=O)O[C@H](C(C)(C(=O)OC)[C@@H](O)/C=C/C)C\C=C/C=C/C=C/c2nc(co2)C(=O)O1` (some centres unmarked) [disorazole Z], the “binding affinity value relative to maytansine and spongistatin” value in assay [4] (times higher Kd than maytansine and spongistatin, rebuttal letter) is reported as ~ 100 times.

Regarding `COc1cc2cc(c1Cl)N(C)C(=O)C[C@H](OC(=O)[C@H](C)N(C)C(C)=O)[C@]1(C)O[C@H]1[C@H](C)[C@@H]1C[C@@](O)(NC(=O)O1)[C@H](OC)/C=C/C=C(\C)C2` [maytansine], the Kd on tubulin [5] is about 900 nM.

For `CC[C@]1(O)C[C@@H]2CN(CCc3c([nH]c4ccccc34)[C@@](C(=O)OC)(c3cc4c(cc3OC)N(C)[C@H]3[C@@](O)(C(=O)OC)[C@H](OC(C)=O)[C@]5(CC)C=CCN6CC[C@]43[C@@H]65)C2)C1` [vinblastine], in assay [4], the “displacement of FcMaytansine” value is recorded as “not”.

Take ansamitocin P3: the “displacement of FcMaytansine” value in assay [4] (setting [7]) is “fully displaced”.

For spongistatin-1, the Kd in assay [4] (setting [6]) was 9.5 ± 1.9 nM. Besides, the antiproliferative activity result in the assay on human cancer cell lines is “single digit picomolar”. Further, the “in vivo antitumour activity” value in the assay on mouse xenograft models is “antitumour activity”.
